Test results taken from US20170349638A1, “COMPANION DIAGNOSTIC TOOL FOR PEPTIDOMIMETIC MACROCYCLES” (AILERON Therapeutics, Inc., priority 2016, published 2017).
Each block holds one molecule with its values, some of them ahead of it. Where a SMILES comes first, the peptide text is derived from it. Bridges are numbered along the chain shown (N, C = ends). [ ]: non-standard residue; d: D form. Trp(6-Cl) = N[C@@H](Cc1c[nH]c2cc(Cl)ccc12)C(=O)O; R8 = C=CCCCCCC[C@@](C)(N)C(=O)O; S5 = C=CCCC[C@](C)(N)C(=O)O; Ac3c = NC1(C(=O)O)CC1

Tests used:
[1] = tested on: Caspase 3 activation in SJSA1 cells; test: Caspase 3 detection assay; format: cell-based; conditions: 48 h, Caspase 3 activation over DMSO-treated cells
Protocol: Read on Synergy Biotek multiplate reader for luminescence. Data is analyzed as Caspase 3 activation over DMSO-treated cells.

SJSA-1 cells = test: Cell lysis by peptidomimetic macrocycles (LDH release); format: cell-based; conditions: 1 h incubation
Protocol: On the day of the assay, media was exchanged with RPMI 1% FBS media, 90 μl of media per well.
10 mM stock solutions of the peptidomimetic macrocycles were prepared in 100% DMSO.
The negative control (non-lytic) sample was 0.5% DMSO alone and positive control (lytic) samples include 10 uM Melittin and 1% Triton X-100.
Cell plates were incubated for 1 hour at 37° C. After the 1 hour incubation, the morphology of the cells is examined by microscope and then the plates were centrifuged at 1200 rpm for 5 minutes at room temperature. 40 μl of supernatant for each peptidomimetic macrocyle and control sample is transferred to clear assay plates.

MDM2 = MDM2 (Homo sapiens, UniProt Q00987); test: Competitive fluorescence polarization assay for MDM2; format: binding; conditions: Table 26B, competitive FP; for Ki: read-out: Ki (MDM2)
Protocol: Dilute 1 mM (in 100% DMSO) of FAM labeled linear peptide with DMSO to 100 μM (dilution 1:10). Then, dilute from 100 μM to 10 μM with water (dilution 1:10) and then dilute with FP buffer from 10 μM to 40 nM (dilution 1:250). This is the working solution which will be a 10 nM concentration in well (dilution 1:4). Keep the diluted FAM labeled peptide in the dark until use. • 4. […] Dilute 10 mM (in 100% DMSO) with DMSO to 5 mM (dilution 1:2). Then, dilute from 5 mM to 500 μM with H2O (dilution 1:10) and then dilute with FP buffer from 500 μM to 20 μM (dilution 1:25). […] Add 10 μl of 10 nM (4×) of FAM labeled peptide into each well and incubate for 3 hr to read.

MDMX = biological target: T1, MDMX (Homo sapiens, UniProt O15151); test: Competitive fluorescence polarization assay MDMX; format: binding; conditions: Table 26B; competitive FP
T1 sequence (O15151 1-125): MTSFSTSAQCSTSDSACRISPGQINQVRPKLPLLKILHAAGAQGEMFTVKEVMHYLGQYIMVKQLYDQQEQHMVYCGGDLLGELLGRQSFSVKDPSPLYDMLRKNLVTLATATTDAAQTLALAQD
Protocol: Dilute MDMX (In-house, 40 kD) into FP buffer (High salt buffer—200 mM NaCl, 5 mM CHAPS, pH 7.5.) to make 300 nM (2×) working stock solution. • 2. Add 20 μl of 300 nM (2×) of protein stock solution into each well of 96-well black HE microplate (Molecular Devices) • 3. Dilute 1 mM (in 100% DMSO) of FAM labeled linear peptide with DMSO to 100 μM (dilution 1:10). Then, dilute from 100 μM to 10 μM with water (dilution 1:10) and then dilute with FP buffer from 10 μM to 40 nM (dilution 1:250). This is the working solution which will be a 10 nM concentration in well (dilution 1:4). Keep the diluted FAM labeled peptide in the dark until use. • 4. […] Dilute 10 mM (in 100% DMSO) with DMSO to 5 mM (dilution 1:2). Then, dilute from 5 mM to 500 μM with H2O (dilution 1:10) and then dilute with FP buffer from 500 μM to 20 μM (dilution 1:25). […] Transfer 10 μl of serial diluted unlabeled peptides to each well which is filled with 20 μl of 300 nM of protein. • 7. Add 10 μl of 10 nM (4×) of FAM labeled peptide into each well and incubate for 3 hr to read.

HDM2 = HDM2 (Homo sapiens, UniProt Q00987); test: FP Competition Blinding Assay | HDM2 IC50 (nM)
HDMx = HDMx (Homo sapiens, UniProt O15151); test: FP Competition Blinding Assay | HDMx IC50 (nM)
Chain of HDMx (O15151 whole entry, looked up): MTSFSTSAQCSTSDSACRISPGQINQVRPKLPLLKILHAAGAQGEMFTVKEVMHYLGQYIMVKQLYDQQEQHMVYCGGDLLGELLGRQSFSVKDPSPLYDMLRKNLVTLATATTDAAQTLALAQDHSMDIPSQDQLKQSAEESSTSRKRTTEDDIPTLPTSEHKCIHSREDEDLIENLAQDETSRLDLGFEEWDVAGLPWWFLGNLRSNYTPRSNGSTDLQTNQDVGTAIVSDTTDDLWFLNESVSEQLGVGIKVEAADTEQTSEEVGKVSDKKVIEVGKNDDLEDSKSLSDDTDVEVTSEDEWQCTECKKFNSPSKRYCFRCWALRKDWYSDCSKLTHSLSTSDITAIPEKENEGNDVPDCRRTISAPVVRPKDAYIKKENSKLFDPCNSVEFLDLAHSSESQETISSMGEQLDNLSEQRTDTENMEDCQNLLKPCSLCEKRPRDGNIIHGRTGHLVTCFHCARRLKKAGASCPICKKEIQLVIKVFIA

Chain of MDM2 (Q00987 1-125): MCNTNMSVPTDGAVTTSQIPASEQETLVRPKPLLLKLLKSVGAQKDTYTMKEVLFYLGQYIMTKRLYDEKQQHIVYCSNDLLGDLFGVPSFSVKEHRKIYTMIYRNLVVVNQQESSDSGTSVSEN
Chain of HDM2 (Q00987 whole entry, looked up): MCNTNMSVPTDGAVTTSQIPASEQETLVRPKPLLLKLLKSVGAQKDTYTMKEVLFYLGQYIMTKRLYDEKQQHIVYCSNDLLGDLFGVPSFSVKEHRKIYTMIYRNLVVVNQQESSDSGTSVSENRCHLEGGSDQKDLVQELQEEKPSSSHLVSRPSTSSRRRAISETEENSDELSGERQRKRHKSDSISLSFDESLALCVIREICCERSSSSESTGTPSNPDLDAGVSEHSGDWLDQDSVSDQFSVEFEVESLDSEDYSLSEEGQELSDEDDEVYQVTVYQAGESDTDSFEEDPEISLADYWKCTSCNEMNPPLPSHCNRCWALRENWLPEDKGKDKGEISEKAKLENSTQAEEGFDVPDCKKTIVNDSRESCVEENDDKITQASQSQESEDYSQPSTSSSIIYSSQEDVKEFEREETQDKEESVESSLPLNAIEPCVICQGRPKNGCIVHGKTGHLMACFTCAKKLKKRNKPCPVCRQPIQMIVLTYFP

Molecule: 287 (LTFAEYWAQAAAAIA; not fully specified; Ac, NH2, staple, difluoro-Phe, Cba; N-term Ac; MOD_RES (3)..(3): 3,4-difluoro-Phe; MOD_RES (4)..(4): Alpha-Me R-azide 1,4 triazole (6 carbon) alanine olefin amino acid connected by an all-carbon crosslinker comprising one double bond; misc_feature (4)..(11): C) [compound 287]
- caspase 0.3 uM ([1]; 0.3 uM): 1
- caspase 1 uM ([1]; 1 uM): 1
- caspase 3 uM ([1]; 3 uM): 3
- caspase 10 uM ([1]; 10 uM): 11
- caspase 30 uM ([1]; 30 uM): 23
- 6.25 uM % Lysed cells (1 h LDH) (SJSA-1 cells): 0%
- 25 uM % Lysed cells (1 h LDH) (SJSA-1 cells): 11%
- 50 uM % Lysed cells (1 h LDH) (SJSA-1 cells): 56%

Molecule: 413 (LTFAXYWAQLAAALA; not fully specified; Ac, NH2, staple, Cou4, Nle; N-term Ac; MOD_RES (4)..(4): Alpha-Me R-azide 1,4 triazole (6 carbon) alanine olefin amino acid connected by an all-carbon crosslinker comprising one double bond; misc_feature (4)..(11): Crosslink between residues; MOD_RES () [compound 413]
- 6.25 uM % Lysed cells (1 h LDH) (SJSA-1 cells): 5%
- 25 uM % Lysed cells (1 h LDH) (SJSA-1 cells): 3%
- 50 uM % Lysed cells (1 h LDH) (SJSA-1 cells): 3%

Molecule: 414 (LTFAXYWAQLAAALA; not fully specified; Ac, NH2, staple, Cou4, Nle; N-term Ac; MOD_RES (4)..(4): Alpha-Me R-azide 1,4 triazole (6 carbon) alanine olefin amino acid connected by an all-carbon crosslinker comprising one double bond; misc_feature (4)..(11): Crosslink between residues; MOD_RES () [compound 414]
- 6.25 uM % Lysed cells (1 h LDH) (SJSA-1 cells): 3%
- 25 uM % Lysed cells (1 h LDH) (SJSA-1 cells): 2%
- 50 uM % Lysed cells (1 h LDH) (SJSA-1 cells): 2%

- IC50 (MDM2): < 10 nM
- Ki (MDM2): < 10 nM
- IC50 (MDMX): < 10 nM
- Ki (MDMX): < 10 nM
Molecule: CCCC[C@H](NC(=O)[C@H](C)NC(=O)[C@H](C)NC(=O)[C@]1(C)CCCc2cn(nn2)CCCCCC[C@@](C)(NC(=O)[C@H](Cc2ccccc2)NC(=O)[C@@H](NC(=O)[C@H](CC(C)C)NC(C)=O)[C@@H](C)O)C(=O)N[C@@H](C)C(=O)N[C@@H](Cc2ccc(O)cc2)C(=O)N[C@@H](Cc2c[nH]c3ccccc23)C(=O)N[C@@H](C)C(=O)N[C@@H](CCC(N)=O)C(=O)N[C@@H](CC(C)C)C(=O)N1)C(=O)N[C@@H](C)C(N)=O [SP449, Ac-LTF$4rn6AYWAQL$4a5AANleA-NH2]

- Ki (MDM2): < 10 nM
- Ki (MDMX): 10 to 100 nM
Molecule: CC(=O)N[C@@H](CC(C)C)C(=O)N[C@H](C(=O)N[C@@H](Cc1ccccc1)C(=O)N[C@]1(C)CCCCCCn2nncc2CCC[C@@](C)(C(=O)N[C@@H](CO)C(=O)N[C@@H](C)C(=O)N[C@@H](C)C(N)=O)NC(=O)[C@H](CC2CCC2)NC(=O)[C@H](CCC(N)=O)NC(=O)[C@H](C)NC(=O)[C@H](Cc2c[nH]c3ccccc23)NC(=O)[C@H](Cc2ccc(O)cc2)NC(=O)[C@H](CCC(=O)O)NC1=O)[C@@H](C)O [SP456, Ac-LTF$5rn6EYWAQCba$5a5SAA-NH2]

- Ki (MDM2): < 10 nM
- Ki (MDMX): < 10 nM
Molecule: CC(=O)N[C@@H](CC(C)C)C(=O)N[C@H](C(=O)N[C@@H](Cc1ccccc1)C(=O)N[C@]1(C)CCCCCCn2nnc(c2I)CCC[C@@](C)(C(=O)N[C@@H](CO)C(=O)N[C@@H](C)C(=O)N[C@@H](C)C(N)=O)NC(=O)[C@H](CC2CCC2)NC(=O)[C@H](CCC(N)=O)NC(=O)[C@H](C)NC(=O)[C@H](Cc2c[nH]c3ccccc23)NC(=O)[C@H](Cc2ccc(O)cc2)NC(=O)[C@H](CCC(=O)O)NC1=O)[C@@H](C)O [SP457, Ac-LTF$4rn6EYWAQCba5I-$4a5SAA-NH2]

- Ki (MDM2): > 1000 nM
- Ki (MDMX): > 1000 nM
Molecule: CC(=O)N[C@@H](CC(C)C)C(=O)N[C@H](C(=O)N[C@@H](C)C(=O)N[C@]1(C)CCCCCCn2nncc2CCC[C@@](C)(C(=O)N[C@@H](CO)C(=O)N[C@@H](C)C(=O)N[C@@H](C)C(N)=O)NC(=O)[C@H](CC2CCC2)NC(=O)[C@H](CCC(N)=O)NC(=O)[C@H](C)NC(=O)[C@H](Cc2c[nH]c3ccccc23)NC(=O)[C@H](Cc2ccc(O)cc2)NC(=O)[C@H](CCC(=O)O)NC1=O)[C@@H](C)O [SP459, Ac-LTA$5rn6EYWAQCba$5a5SAA-NH2]

- Ki (MDM2): > 1000 nM
- Ki (MDMX): > 1000 nM
Molecule: CC(=O)N[C@@H](CC(C)C)C(=O)N[C@H](C(=O)N[C@@H](C)C(=O)N[C@]1(C)CCCCCCn2cc(nn2)CCC[C@@](C)(C(=O)N[C@@H](CO)C(=O)N[C@@H](C)C(=O)N[C@@H](C)C(N)=O)NC(=O)[C@H](CC2CCC2)NC(=O)[C@H](CCC(N)=O)NC(=O)[C@H](C)NC(=O)[C@H](Cc2c[nH]c3ccccc23)NC(=O)[C@H](Cc2ccc(O)cc2)NC(=O)[C@H](CCC(=O)O)NC1=O)[C@@H](C)O [SP460, Ac-LTA$4rn6EYWAQCba$4a5SAA-NH2]

- Ki (MDM2): < 10 nM
- Ki (MDMX): < 10 nM
Molecule: CC(=O)N[C@@H](CC(C)C)C(=O)N[C@H](C(=O)N[C@@H](Cc1ccccc1)C(=O)N[C@]1(C)CCCCCCn2nnc(c2-c2ccccc2)CCC[C@@](C)(C(=O)N[C@@H](CO)C(=O)N[C@@H](C)C(=O)N[C@@H](C)C(N)=O)NC(=O)[C@H](CC2CCC2)NC(=O)[C@H](CCC(N)=O)NC(=O)[C@H](C)NC(=O)[C@H](Cc2c[nH]c3ccccc23)NC(=O)[C@H](Cc2ccc(O)cc2)NC(=O)[C@H](CCC(=O)O)NC1=O)[C@@H](C)O [SP465, Ac-LTF$4rn6EYWAQCba5Ph-$4a5SAA-NH2]

- IC50 (HDM2): 114 nM
Molecule: CC(=O)N[C@@H](Cc1ccccc1)C(=O)N[C@]1(C)CCCCCCC=CCCC[C@@](C)(C(=O)N[C@@H](C)C(N)=O)NC(=O)[C@H](CC(C)C)NC(=O)C2(CC2)NC(=O)[C@H](CCC(=O)O)NC(=O)[C@H](Cc2c[nH]c3cc(Cl)ccc23)NC(=O)[C@H](Cc2ccc(O)cc2)NC(=O)[C@H](C)NC1=O [SP-128, Ac- F $r8 A Y 6clW E Ac3c L $ A -NH2] (Ac-F[R8]AY[Trp(6-Cl)]E[Ac3c]L[S5]A-NH2; staple 2-9 (inferred))

- IC50 (HDM2): 74.9 nM
- IC50 (HDMx): 97 nM
Molecule: CC(=O)N[C@@H](CC(C)C)C(=O)N[C@H](C(=O)N[C@@H](Cc1ccccc1)C(=O)N[C@]1(C)CCCCCC/C=C/CCC[C@@](C)(C(=O)N[C@@H](CO)C(N)=O)NC(=O)[C@H](CC(C)C)NC(=O)[C@H](CCC(N)=O)NC(=O)[C@H](C)NC(=O)[C@H](Cc2c[nH]c3ccccc23)NC(=O)[C@H](Cc2ccc(O)cc2)NC(=O)[C@H](C)NC1=O)[C@@H](C)O [SP-190, Ac- L T F $er8 A Y W A Q L $e S -NH2] (Ac-LTF[R8]AYWAQL[S5]S-NH2; staple (E) 4-11 (inferred))

- IC50 (HDMx): 204 nM
Molecule: CC(=O)N[C@@H](Cc1c[nH]c2ccccc12)C(=O)N[C@H](C(=O)N[C@@H](Cc1ccccc1)C(=O)N[C@]1(C)CCCCCCC=CCCC[C@@](C)(C(=O)N[C@@H](CO)C(N)=O)NC(=O)[C@H](CC(C)C)NC(=O)[C@H](CCC(N)=O)NC(=O)[C@H](C)NC(=O)[C@H](Cc2c[nH]c3ccccc23)NC(=O)[C@H](Cc2ccc(O)cc2)NC(=O)[C@H](Cc2c[nH]cn2)NC1=O)[C@@H](C)O [SP-256, Ac- W T F $r8 H Y W A Q L $ S -NH2] (Ac-WTF[R8]HYWAQL[S5]S-NH2; staple 4-11 (inferred))

- IC50 (HDMx): 301 nM
Molecule: CC(=O)N[C@@H](CC(C)C)C(=O)N[C@H](C(=O)N[C@@H](Cc1ccccc1)C(=O)N[C@]1(C)CCCCCCC=CCCC[C@@](C)(C(=O)N[C@@H](CO)C(N)=O)NC(=O)[C@H](CC(C)C)NC(=O)[C@H](CCC(N)=O)NC(=O)[C@H](C)NC(=O)[C@H](Cc2c[nH]c3ccccc23)NC(=O)[C@H](Cc2ccc(O)cc2)NC(=O)[C@H](C(C)C)NC1=O)[C@@H](C)O [SP-266, Ac- L T F $r8 V Y W A Q L $ S -NH2] (Ac-LTF[R8]VYWAQL[S5]S-NH2; staple 4-11 (inferred))

- IC50 (HDM2): 191 nM
Molecule: CC(=O)N[C@@H](CC(C)C)C(=O)N[C@H](C(=O)N[C@@H](Cc1ccccc1)C(=O)N[C@]1(C)CCCCCCC=CCCC[C@@](C)(C(=O)N[C@@H](CO)C(N)=O)NC(=O)[C@H](CC(C)C)NC(=O)[C@H](CCC(N)=O)NC(=O)[C@H](C)NC(=O)[C@H](Cc2c[nH]c3ccccc23)NC(=O)[C@H](Cc2ccc(O)cc2)NC(=O)[C@H](Cc2ccccc2)NC1=O)[C@@H](C)O [SP-267, Ac- L T F $r8 F Y W A Q L $ S -NH2] (Ac-LTF[R8]FYWAQL[S5]S-NH2; staple 4-11 (inferred))

- IC50 (HDM2): 47.2 nM
- IC50 (HDMx): 143 nM
Molecule: CC(=O)N[C@@H](CC(C)C)C(=O)N[C@H](C(=O)N[C@@H](Cc1ccccc1)C(=O)N[C@]1(C)CCCCCCC=CCCC[C@@](C)(C(=O)N[C@@H](CO)C(N)=O)NC(=O)[C@H](CC(C)C)NC(=O)[C@H](C)NC(=O)[C@H](C)NC(=O)[C@H](Cc2c[nH]c3ccccc23)NC(=O)[C@H](Cc2ccc(O)cc2)NC(=O)[C@H](C)NC1=O)[C@@H](C)O [SP-351, Ac- L T F $r8 A Y W A A L $ S -NH2] (Ac-LTF[R8]AYWAAL[S5]S-NH2; staple 4-11 (inferred))
